Test results published in patent US20100204117A1, “CGRP AS A THERAPEUTIC AGENT” (priority 2008, published 2010).
No end group written: not given here.

Legend:
HCMV strain AD169 = test: HCMV plaque formation assay in MRC-5 cells
spleen cells = test: Th1/Th2 cytokine profiling assay (Ovalbumin-restimulated spleen cells, CBA kit); assay type: cell-based, Balb/c mice; details: 10 micrograms per ml; Ovalbumin restimulation; 72 hours
Method: The Balb/c mice (originated in 1923, it is a popular strain and is used in many different research disciplines. […] On day 50, spleens of the mice were harvested (3 weeks after last boost with Ovalbumin). […] Thereafter, additional Ovalbumin was added to the cells at 10 micrograms/ml for in vitro restimulation of the cells. 72 hours later, cell supernatants were harvested and assayed using the Becton Dickinson Mouse Th1/Th2 Cytokine CBA Kit. This kit can be used to measure Interleukin-2 (IL-2), Interleukin-4 (IL-4), Interleukin-5 (IL-5), Interferon-γ (IFN-γ), and Tumor Necrosis Factor-α (TNF-α) protein levels in a single sample. The kit performance has been optimized for analysis of physiologically relevant concentrations ([…] levels) of specific cytokine proteins in tissue culture supernatants and serum samples.

[1] = system: hepatitis B virus (HBV) ayw strain; test: HBV assay in HepG2-2.2.15 cells (secreted HBV DNA, TaqMan PCR); assay type: cell-based; details: 10 micrograms per ml, six days
HUVEC = test: Endothelial tube formation assay; assay type: cell-based, human; details: 10 micrograms per ml, 20 hours
[2] = system: Primary Human endothelial cells (HUVEC); test: Endothelial cell migration assay; assay type: cell-based; details: 10 micrograms per ml, 22 hours
HIV-1IIIB = test: HIV-1 antiviral assay in CEM-SS cells (MTS readout); assay type: cell-based

**Q.** For “Ala-Cys-Asn-Thr-Ala-Thr-Cys-Val-Thr-His-Arg-Leu-Ala-Gly-Leu-Leu-Ser-Arg-Ser-Gly-Gly-Met-Val-Lys-Ser-Asn-Phe-Val-Pro-Thr-Asn-Val-Gly-Ser-Lys-Ala-Phe-NH2 (ACNTATCVTHRLAGLLSRSGGMVKSNFVPTNVGSKAF-NH2; ends and bridges not checked) [peptide 1, beta Calcitonin Gene-Related Peptide, commercially available known peptide]”, which “inhibition of HCMV plaque formation as compared to the virus control experiment” value (HCMV strain AD169; 10 micrograms per ml, 7-10 days) is on record?
**A.** did not show any inhibition

**Q.** What about the “IFNγ spleen cells; TH1 response (% of control)” value (spleen cells) of the same molecule?
**A.** 31.9 % of control

**Q.** What about the “IL-2 spleen cells (% of control)” value (spleen cells) of the same molecule?
**A.** 104.8 % of control

**Q.** What about the “IL-4 spleen cells; TH2 response (% of control)” value (spleen cells) of the same molecule?
**A.** 90.3 % of control

**Q.** And the “IL-5 spleen cells; TH2 response (% of control)” value (spleen cells)?
**A.** 40.1 % of control

**Q.** What about the “TNF-a spleen cells; TH1 response (% of control)” value (spleen cells) of the same molecule?
**A.** 84.0 % of control

**Q.** And the “inhibition of HBV replication as compared to the virus control infection” value [1]?
**A.** 19.3%

**Q.** What about the “inhibition of the tube formation of human endothelial cells” value (HUVEC) of the same molecule?
**A.** 12%

**Q.** And the “inhibition of the migration of human endothelial cells” value [2]?
**A.** did not inhibit

**Q.** How did the “antiviral activity of positive control compounds (HIV-1)” value (HIV-1IIIB) turn out when Cc1cn([C@H]2C[C@H](N=[N+]=[N-])[C@@H](CO)O2)c(=O)[nH]c1=O [AZT] was run?
**A.** expected levels of antiviral activity

**Q.** Which “antiviral activity of positive control compounds (HIV-1)” value (HIV-1IIIB) does the source give for CC(C)(C)NC(=O)[C@@H]1CN(Cc2cccnc2)CCN1C[C@@H](O)C[C@@H](Cc1ccccc1)C(=O)N[C@H]1c2ccccc2C[C@H]1O [indinavir] here?
**A.** expected levels of antiviral activity

**Q.** Nc1nc(O)c2ncn(COC(CO)CO)c2n1 [Ganciclovir, reference compound] was tested. Which “antiviral activity of positive control compound (HCMV)” value (HCMV strain AD169; positive control) did it give?
**A.** expected levels of antiviral activity
